Source: patent publication US11572379B2, “Monomaleimide-functionalized platinum compounds for cancer therapy” (Medizinische Universität Wien, priority 2015, dated 2023)
“Also recorded” adds a separate entry of the source.

What was measured:
CT-26 colon cancer cells = experiment: CT-26 colon cancer in vivo assay for anticancer activity; set-up: species or system Balb/c mice
Procedure: CT-26 colon cancer cells (5×10^5 in serum-free medium) were injected subcutaneously into the right flank of Balb/c mice. Animals were treated with the indicated oxaliplatin-releasing drugs at concentrations equimolar to 9 mg/kg oxaliplatin (i.v.; KP2156, KP2299 (compound 12), and KP2541 (compound 22) were dissolved in 0.9% NaCl solution, KP2260 (compound 11) was dissolved in 10% propylene glycol/0.9% NaCl and oxaliplatin was dissolved in 5% glucose solution according to the clinical protocol) twice a week (Mondays and Thursdays). Also in case of KP2552 (mixture of compounds 23 and 24, with the 4-methyl-1,2-cyclohexanediamine moiety) the solvent and application scheme of oxaliplatin was used. In case of cisplatin-releasing prodrugs KP2372 (compound 8) and KP2540 (compound 30), a dose equimolar to 3 mg/kg cisplatin was applied twice a week. For the carboplatin derivative KP2551 (compound 20) a dose equimolar to 12 mg/kg carboplatin was applied. The complexes were dissolved in 0.9% NaCl, while for the platinum(II) drugs 5% glucose solution was used according to the clinical protocol. Animals were controlled for distress development every day and tumor size was assessed regularly by caliper measurement. Tumor volume was calculated using the formula: (length×width^2).

[1] = tested on: L1210 murine leukemia cells; experiment: L1210 leukemia in vivo assay (survival); conditions: L1210 i.p., male DBA/2J×Balb/c SCID F1 mice
Procedure: L1210 murine leukemia cells (1×10^5) were injected intraperitoneally in a volume of 0.2 mL into female DBA/2J (cisplatin-releasing drugs) or male DBA/2J×Balb/c SCID F1 mice (oxaliplatin-releasing drugs). Compounds (see FIG. 4; dissolved as described above) were administered intraperitoneally at drug concentrations equimolar to 3 mg/kg cisplatin and 9 mg/kg oxaliplatin, respectively, on day 1, 5, and 9. Toxicity was monitored by daily observation of animals and registration of their body weight. Therapeutic efficacy of the drug candidate was monitored by recording the lengths of survival of experimental mice compared to untreated control animals.

[2] = RP-HPLC stability studies: hydrolytic stability in buffered aqueous solution at different pH values; format: physicochemical; conditions: 0.5 mM, 20° C.; for stability (decrease of the compound peak area): over 24 h; for hydrolysis: 24 hours
Procedure: The stability of the compounds of the invention in aqueous solutions at different pH values was evaluated by incubation of compound 12 (KP2299) in different buffers and subsequent monitoring of the decrease of the compound peak area with the UV/VIS detector of a RP-HPLC system at 250 nm. Therefore, compound 12 was dissolved at a concentration of 0.5 mM in either 100 mM phosphate buffer pH=7.4, 100 mM sodium acetate buffer pH=6.3, 100 mM sodium acetate buffer pH=5.3 or 100 mM sodium acetate buffer pH=4.3 and incubated at 20° C. for 24 hours. All the measurements were carried out on an Ultimate 3000 RS system (Thermo Scientific, Waltham, Mass., USA) controlled by Chromeleon 7.2 SR4 software using an Acquity BEH C18 reversed phase column (50×3.0 mm, 1.7 μm particle size) from Waters (Milford, USA). Following conditions were used for the runs: flow rate 0.6 mL/min, sampler temperature: 20° C., column oven temperature 25° C., injection volume 10 μL, gradient 5-95% MeOH (and H2O (+0.1% HCOOH)) in 10 min. The compound was first measured directly after the preparation of the compound (after 2-3 min) and thereafter every 60 min. The decrease of the compound was calculated by the compound peak areas relatively to the peak area directly after the preparation of the compound. […] At pH=6.3 the hydrolysis is below 0.5%/h, whereas at pH=7.4 the hydrolysis is quite fast with ˜2.6%/h (see FIG. 5). Corresponding results can be obtained when the further compounds of the invention are tested.

B16 melanoma cells = experiment: B16 melanoma in vivo assay for anticancer activity; conditions: male C57/B6JRj mice, i.v. twice a week, equimolar to 9 mg/kg oxaliplatin
Procedure: B16 melanoma cells (1×10^5 in serum-free medium) were injected subcutaneously into the right flank of male C57/B6JRj mice. Animals were treated with KP2299 at concentrations equimolar to 9 mg/kg oxaliplatin (i.v.; dissolved in 0.9% NaCl solution) twice a week. Oxaliplatin was dissolved in 5% glucose solution according to the clinical protocol. Animals were controlled for distress development every day and tumor size was assessed regularly by caliper measurement. Tumor volume was calculated using the formula: (length×width^2).

Aqueous solubility = conditions: compared to KP2260
[3] = Balb/c mice, twice a week, dose equimolar to 3 mg/kg cisplatin
[4] = male Balb/c mice, dose equimolar to 12 mg/kg carboplatin
[5] = Balb/c mice, i.v. twice a week, equimolar to 9 mg/kg oxaliplatin

CC(=O)[O][Pt]([Cl])([Cl])[O]C(=O)NCCN1C(=O)C=CC1=O.N.N [KP2372, (OC-6-44)-Acetatodiamminedichlorido[2-(2,5-dioxo-2,5-dihydro-1H-pyrrol-1-yl)ethylcarbamato]platinum(IV)]
anticancer activity against CT-26 tumors (tumor growth) (CT-26 colon cancer cells; [3]): only marginally active; also recorded: widely inactive

CC(=O)[O][Pt]([Cl])([Cl])[O]C(=O)NCCCCCN1C(=O)C=CC1=O.N.N [KP2540, (OC-6-44)-Acetatodiamminedichlorido[5-(2,5-dioxo-2,5-dihydro-1H-pyrrol-1-yl)pentylcarbamato]platinum(IV)]
anticancer activity against CT-26 tumors (tumor growth) (CT-26 colon cancer cells; [3]): only marginally active; also recorded: widely inactive

CC(=O)[O][Pt]1([NH2])([NH2])([O]C(=O)NCCN2C(=O)C=CC2=O)[O]C(=O)C2(CCC2)C(=O)[O]1 [KP2551, (OC-6-34)-Acetatodiamminecyclobutane-1,1-dicarboxylato[2-(2,5-dioxo-2,5-dihydro-1H-pyrrol-1-yl)ethylcarbamato]platinum(IV)]
anticancer activity against CT-26 tumors (tumor growth) (CT-26 colon cancer cells; [4]): distinctly more active than all other tested compounds; also recorded: very strong anticancer activity

[NH2][Pt]1([NH2])[O]C(=O)C2(CCC2)C(=O)[O]1 [carboplatin, (SP-4-2)-Diamminecyclobutane-1,1-dicarboxylatoplatinum(II), reference compound]
anticancer activity against CT-26 tumors (tumor growth) (CT-26 colon cancer cells; [4]): no impact

O=C1[O][Pt]2([NH][C@@H]3CCCC[C@H]3[NH]2)[O]C1=O [oxaliplatin, reference compound]
treated animals with life prolongation ([1]; i.p. day 1, 5, 9, 9 mg/kg oxaliplatin): ~50%

(OC-6-34)-Acetato[(1R,2R)-cyclohexane-1,2-diamine]oxalato[2-(2,5-dioxo-2,5-dihydro-1H-pyrrol-1-yl)ethylcarbamato]platinum(IV) [KP2299]
stability (decrease of the compound peak area) ([2]; pH=4.3, 100 mM sodium acetate buffer): stable
stability (decrease of the compound peak area) ([2]; pH=5.3, 100 mM sodium acetate buffer): stable
hydrolysis ([2]; pH=6.3, 100 mM sodium acetate buffer): below 0.5 %/h
hydrolysis ([2]; pH=7.4, 100 mM phosphate buffer): ~2.6 %/h
anticancer activity against CT-26 tumors (tumor growth) (CT-26 colon cancer cells; [5]): distinctly more active than all other tested compounds; also recorded: distinctly higher anticancer activity; also recorded: exceptionally increased anticancer activity
complete remission (CT-26 colon cancer cells; CT-26, female mice, equimolar to 9 mg/kg oxaliplatin i.v. twice a week): 3 out of 4
anticancer activity against B16 tumors (B16 melanoma cells): exceptionally increased anticancer activity
anti-leukemic activity (survival) ([1]; i.p. day 1, 5, 9, equimolar to 9 mg/kg oxaliplatin): distinct anti-leukemic activity
aqueous solubility (Aqueous solubility): highly increased

(OC-6-34)-[(1R,2R)-Cyclohexane-1,2-diamine]methoxidooxalato[2-(2,5-dioxo-2,5-dihydro-1H-pyrrol-1-yl)ethylcarbamato]platinum(IV) [KP2260]
anticancer activity against CT-26 tumors (tumor growth) (CT-26 colon cancer cells; [5]): far less or at least later active

(OC-6-44)-Acetato[(1R,2R)-cyclohexane-1,2-diamine]oxalato[4-(2,5-dioxo-2,5-dihydro-1H-pyrrol-1-yl)butanoato]platinum(IV) [KP2541]
anticancer activity against CT-26 tumors (tumor growth) (CT-26 colon cancer cells; [5]): far less or at least later active
